Series [1] concerns C4-2 xenografts. Nature of the series: C4-2 xenograft progression in orchiectomized mice with DHEA pellet. The format is in vivo. To be noted: 0.5 mmol/kg/d i.p.; compared to Abi acetate and enzalutamide. The protocol: Male NSG mice, 6 to 8 weeks of age were obtained from the Cleveland Clinic Biological Resources Unit facility. All mouse studies were conducted under a protocol approved by the Cleveland Clinic Institutional Animal Care and Use Committee. Sample size was determined based on our prior studies of steroidogenesis inhibition in xenograft models of CRPC. Chang et al., Proc Natl Acad Sci USA., 108:13728-13733 (2011). Criteria for progression were determined based on similar criteria that are utilized for clinical progression. Mice were surgically orchiectomized and implanted with a 5 mg 90-day sustained-release DHEA pellet (Innovative Research of America) to mimic CRPC in the context of human adrenal physiology. Two days later, 10^7 VCaP or C4-2 cells were injected subcutaneously with matrigel. […] Control groups were administered 0.1 mL 5% benzyl alcohol and 95% safflower oil solution via intraperitoneal injection every day. Mice in enzalutamide group were fed with enzalutamide in chow every day (10 mg/Kg/day). Tran et al., Science. 324:787-790 (2009). Treatment was not blinded to the investigator. Tumor volume was measured daily, and time to increase in tumor volume by 20% was determined. […] The significance of the difference between treatment groups was assessed by Kaplan-Meier survival analysis using a log-rank test in SigmaStat 3.5.

Series [2] in a line: Serum deoxycorticosterone at end of xenograft study. The format is in vivo. The note with it: serum from treated mice at the end of the xenograft study. The method, then: Mouse serum collection, derivatization and extraction. […] Louis, Mo.). Steroids were extracted with methyl tert-butyl ether (Sigma Aldrich, St. Louis, Mo.), evaporated under a stream of nitrogen gas and reconstituted in methanol:water (50:50) prior to mass spectrometry analysis. Mouse serum analysis. Samples were analyzed on a Thermo TSQ Quantiva-Prelude SPLC system (Thermo Scientific, Waltham, Mass.) with Aria MX 2.1 and Tracefinder 3.2.368.22 software for instrument controls and quantitation. […] Steroids were ionized by electrospray ionization and in positive ion mode. […] Concentrations were determined using stable isotope dilution analysis.

The record followed here is US10265329B2, “Altering steroid metabolism for treatment of steroid-dependent disease” (THE CLEVELAND CLINIC FOUNDATION, priority 2015, dated 2019).

As for `C[C@]12CCC(=O)C=C1CC[C@@H]1[C@@H]2CC[C@]2(C)C(c3cccnc3)=CC[C@@H]12` [Compound D4A, 17-(3-Pyridyl)androsta-4,16-dien-3-one], the progression-free survival entry in series [1] is “increased progression-free survival”. For the same compound, the serum deoxycorticosterone entry in series [2] is listed as “no detectable increase”.
